These results are taken from ChEMBL document CHEMBL1201862, “PubChem BioAssay data set” (2004).

SMILES strings stand for the structures. The source made the active and inactive calls.

The nature of assay [1]: NIH-3T3 fibroblast cytotoxicity, dose response, cytotoxicity control, cell-based, fluorescence, Alamar Blue, secondary assay (AID 2327).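 Note: NIH-3T3 mouse fibroblasts cultured with fluconazole at 8 µg/mL.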 Type of assay: functional. A general note: Resazurin is reduced to fluorescent resorufin, in cell work by metabolically active cells.
Assay [2] is described as follows: C. albicans growth with fluconazole, confirmation, fluorescence, retest (AID 2467). The format is functional, cell-based.
The target of assay [3] is Serine/threonine-protein phosphatase (Candida dubliniensis (strain CD36 / CBS 7987 / NCPF 3949 / NRRLY-17841) (Yeast), UniProt B9W6M3). Description: calcineurin pathway inhibitors in yeast reporter, dose response, S. cerevisiae, CDRE-lacZ, luminescence, secondary (AID 2388).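 Note: yeast reporter cells carrying a calcineurin-responsive lacZ construct stimulated with calcium chloride; luminescent beta-galactosidase reporter signal in whole cells rather than isolated phosphatase activity; potency for inhibition where a drop in reporter signal means calcineurin blockade.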 The format is functional, cell-based.
Assay [4] concerns the target ATP-dependent molecular chaperone HSP82 (Candida albicans (strain WO-1) (Yeast), UniProt C4YTQ8). Description: loss of DOC-induced GRE-beta-galactosidase reporter signal, dose response, Hsp90 inhibitor project, S. cerevisiae, luminescence (AID 2400).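 Note: beta-galactosidase luminescence from glucocorticoid response element reporter as proxy for Hsp90 function; inhibitor potency where signal loss means Hsp90 inhibition.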 The format is functional, cell-based.
Assay [5] has as its target T1, Voltage-gated inwardly rectifying potassium channel KCNH2 (Homo sapiens, UniProt Q12809).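 Note: confirmatory quantitative high-throughput screen measuring inhibition of hERG channel activity.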
Assay [6] deals with T1, Voltage-gated inwardly rectifying potassium channel KCNH2. Particulars: Potency.
The target of assay [7] is Acyl-homoserine lactone acylase PvdQ (Pseudomonas aeruginosa (strain LESB58), UniProt Q9I194). Nature of the assay: P. aeruginosa PvdQ acylase inhibitors, dose response, biochemical, fluorescence, plate reader and imaging, cherry-picks (AID 493231).
A further assay concerns HeLa. Nature of the assay: HeLa cell cytotoxicity, dose response, cytotoxicity control, 48 h, plate reader, cherry-picks (AID 504942). Type of assay: functional, cell-based. Particulars: Homo sapiens.
The target of assay [8] is T2, Microphthalmia-associated transcription factor (Homo sapiens, UniProt O75030).
T2 sequence (O75030 whole entry): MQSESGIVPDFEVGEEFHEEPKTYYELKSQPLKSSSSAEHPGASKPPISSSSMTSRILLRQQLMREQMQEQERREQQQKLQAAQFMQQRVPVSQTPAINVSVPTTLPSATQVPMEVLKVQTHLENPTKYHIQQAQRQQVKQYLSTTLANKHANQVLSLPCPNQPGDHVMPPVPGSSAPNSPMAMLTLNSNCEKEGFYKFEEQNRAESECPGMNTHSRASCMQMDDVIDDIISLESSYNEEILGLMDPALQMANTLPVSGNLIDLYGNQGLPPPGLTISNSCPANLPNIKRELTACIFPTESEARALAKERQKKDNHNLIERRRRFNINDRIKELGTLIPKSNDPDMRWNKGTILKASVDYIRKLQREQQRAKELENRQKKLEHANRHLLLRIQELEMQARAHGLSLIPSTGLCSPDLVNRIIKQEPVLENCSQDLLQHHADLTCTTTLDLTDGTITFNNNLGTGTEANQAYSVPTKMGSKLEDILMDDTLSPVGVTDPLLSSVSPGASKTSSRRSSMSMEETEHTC
Nature of the assay: TRPM1 promoter luciferase signal decrease, dose response, MITF inhibitor project, cell-based, SK-MEL-5, cherry-picked, set 3 (AID 493073).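 Note: SK-MEL-5 melanoma cells with luciferase driven by the MITF target TRPM1 promoter.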 The format is functional.

The test system of assay [9] is A-375. Nature of the assay: MITF: Counter assay: A375 proliferation Measured in Cell-Based System Using Plate Reader - 2084-03_Inhibitor_Dose_DryPowder_Activity. [Related pubchem assays (depositor defined):AID488944]. The note with it: Homo sapiens. Type of assay: functional.
The subject of assay [10] is A-375. Nature of the assay: A375 melanoma cell viability reduction, dose response, counter-screen for MITF modulator project, cherry-pick samples, set 2 (AID 540335). Type of assay: functional, cell-based. The note with it: Homo sapiens. (The purpose of a counterscreen is to sort out artefacts and off-target activity.)
For the next assay, the target named is Hexokinase-1 (Homo sapiens, UniProt P19367). Nature of the assay: SAR analysis of small molecule inhibitors of hexokinase domain containing I (HKDC1) in the hexokinase 1 selectivity assay. [Related pubchem assays (depositor defined):AID493160, AID493190]. The format is functional.
The target of the next assay is T3, Hexokinase HKDC1 (Homo sapiens, UniProt Q2TB90).
T3 sequence (Q2TB90 whole entry): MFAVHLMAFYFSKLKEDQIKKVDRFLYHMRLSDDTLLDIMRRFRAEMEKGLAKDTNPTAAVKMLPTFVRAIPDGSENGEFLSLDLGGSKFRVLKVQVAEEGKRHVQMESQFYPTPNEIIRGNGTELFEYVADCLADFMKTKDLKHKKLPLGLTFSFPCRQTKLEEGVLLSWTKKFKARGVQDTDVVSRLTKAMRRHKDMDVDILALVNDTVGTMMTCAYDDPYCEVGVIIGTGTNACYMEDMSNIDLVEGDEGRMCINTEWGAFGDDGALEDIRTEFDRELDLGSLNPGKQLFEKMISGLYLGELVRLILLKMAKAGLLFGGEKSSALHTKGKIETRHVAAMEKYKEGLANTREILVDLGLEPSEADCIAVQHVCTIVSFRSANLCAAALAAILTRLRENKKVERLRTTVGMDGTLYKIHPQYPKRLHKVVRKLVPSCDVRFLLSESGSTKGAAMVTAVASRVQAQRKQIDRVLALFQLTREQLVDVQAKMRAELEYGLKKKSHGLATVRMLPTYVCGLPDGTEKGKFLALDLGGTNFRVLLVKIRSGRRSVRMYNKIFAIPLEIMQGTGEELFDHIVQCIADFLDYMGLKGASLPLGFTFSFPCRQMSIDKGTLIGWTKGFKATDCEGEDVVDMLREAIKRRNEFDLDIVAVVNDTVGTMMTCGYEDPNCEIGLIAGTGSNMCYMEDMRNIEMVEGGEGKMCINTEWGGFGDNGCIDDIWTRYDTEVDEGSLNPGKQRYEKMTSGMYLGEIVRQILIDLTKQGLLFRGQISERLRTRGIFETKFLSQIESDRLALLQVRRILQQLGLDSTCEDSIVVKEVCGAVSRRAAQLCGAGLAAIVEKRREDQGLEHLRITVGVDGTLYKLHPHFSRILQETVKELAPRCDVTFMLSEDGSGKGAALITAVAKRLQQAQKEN
Description: SAR analysis of small molecule inhibitors of hexokinase domain containing I (HKDC1). [Related pubchem assays (depositor defined):AID493160, AID493190]. The format is functional.

T1 sequence (Q12809 whole entry): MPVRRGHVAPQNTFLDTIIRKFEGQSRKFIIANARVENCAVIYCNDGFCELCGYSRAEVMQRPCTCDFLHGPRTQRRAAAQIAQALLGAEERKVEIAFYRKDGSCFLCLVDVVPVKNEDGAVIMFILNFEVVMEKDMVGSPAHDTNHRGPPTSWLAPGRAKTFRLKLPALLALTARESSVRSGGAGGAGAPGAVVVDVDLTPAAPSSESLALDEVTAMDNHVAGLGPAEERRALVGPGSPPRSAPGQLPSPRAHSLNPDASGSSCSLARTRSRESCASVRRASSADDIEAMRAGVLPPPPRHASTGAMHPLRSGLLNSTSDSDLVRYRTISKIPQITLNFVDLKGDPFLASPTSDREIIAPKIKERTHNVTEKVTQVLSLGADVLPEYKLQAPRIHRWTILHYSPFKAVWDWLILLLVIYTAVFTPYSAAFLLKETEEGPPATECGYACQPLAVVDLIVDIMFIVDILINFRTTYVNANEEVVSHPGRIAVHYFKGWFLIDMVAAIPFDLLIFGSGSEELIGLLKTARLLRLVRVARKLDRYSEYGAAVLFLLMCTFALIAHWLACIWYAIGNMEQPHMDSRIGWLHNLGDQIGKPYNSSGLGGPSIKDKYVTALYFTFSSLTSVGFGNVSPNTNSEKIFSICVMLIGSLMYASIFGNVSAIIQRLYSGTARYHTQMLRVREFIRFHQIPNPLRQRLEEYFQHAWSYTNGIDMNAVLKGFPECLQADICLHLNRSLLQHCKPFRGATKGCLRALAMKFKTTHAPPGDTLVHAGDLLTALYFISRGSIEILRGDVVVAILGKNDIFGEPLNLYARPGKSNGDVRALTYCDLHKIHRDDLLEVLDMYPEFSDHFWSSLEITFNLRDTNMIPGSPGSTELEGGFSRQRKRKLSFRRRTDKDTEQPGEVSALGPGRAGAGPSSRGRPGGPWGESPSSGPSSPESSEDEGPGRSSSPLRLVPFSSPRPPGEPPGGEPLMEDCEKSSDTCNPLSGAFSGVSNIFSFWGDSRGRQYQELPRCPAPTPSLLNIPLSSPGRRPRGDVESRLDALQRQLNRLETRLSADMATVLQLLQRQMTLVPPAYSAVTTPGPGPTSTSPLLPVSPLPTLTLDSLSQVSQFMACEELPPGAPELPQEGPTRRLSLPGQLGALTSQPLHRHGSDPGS
Sequence of Serine/threonine-protein phosphatase (B9W6M3 whole entry): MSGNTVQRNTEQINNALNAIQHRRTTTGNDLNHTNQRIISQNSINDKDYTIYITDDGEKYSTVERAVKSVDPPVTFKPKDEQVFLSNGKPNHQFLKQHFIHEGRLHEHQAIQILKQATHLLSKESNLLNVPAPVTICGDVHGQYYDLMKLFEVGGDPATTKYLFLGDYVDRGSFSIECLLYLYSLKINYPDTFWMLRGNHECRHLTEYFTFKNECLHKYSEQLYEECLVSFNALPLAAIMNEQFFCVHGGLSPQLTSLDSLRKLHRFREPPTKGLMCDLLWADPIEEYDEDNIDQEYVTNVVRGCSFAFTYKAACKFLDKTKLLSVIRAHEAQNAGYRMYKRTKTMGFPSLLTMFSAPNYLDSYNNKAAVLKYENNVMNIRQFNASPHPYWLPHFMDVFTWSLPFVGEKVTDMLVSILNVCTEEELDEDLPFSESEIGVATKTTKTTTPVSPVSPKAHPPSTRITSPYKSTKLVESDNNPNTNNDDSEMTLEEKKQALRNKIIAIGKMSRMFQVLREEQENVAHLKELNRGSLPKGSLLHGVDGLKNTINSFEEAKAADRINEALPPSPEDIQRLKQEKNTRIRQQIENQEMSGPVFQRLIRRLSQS
Sequence of Hexokinase-1 (P19367 whole entry, the tested form may be a part): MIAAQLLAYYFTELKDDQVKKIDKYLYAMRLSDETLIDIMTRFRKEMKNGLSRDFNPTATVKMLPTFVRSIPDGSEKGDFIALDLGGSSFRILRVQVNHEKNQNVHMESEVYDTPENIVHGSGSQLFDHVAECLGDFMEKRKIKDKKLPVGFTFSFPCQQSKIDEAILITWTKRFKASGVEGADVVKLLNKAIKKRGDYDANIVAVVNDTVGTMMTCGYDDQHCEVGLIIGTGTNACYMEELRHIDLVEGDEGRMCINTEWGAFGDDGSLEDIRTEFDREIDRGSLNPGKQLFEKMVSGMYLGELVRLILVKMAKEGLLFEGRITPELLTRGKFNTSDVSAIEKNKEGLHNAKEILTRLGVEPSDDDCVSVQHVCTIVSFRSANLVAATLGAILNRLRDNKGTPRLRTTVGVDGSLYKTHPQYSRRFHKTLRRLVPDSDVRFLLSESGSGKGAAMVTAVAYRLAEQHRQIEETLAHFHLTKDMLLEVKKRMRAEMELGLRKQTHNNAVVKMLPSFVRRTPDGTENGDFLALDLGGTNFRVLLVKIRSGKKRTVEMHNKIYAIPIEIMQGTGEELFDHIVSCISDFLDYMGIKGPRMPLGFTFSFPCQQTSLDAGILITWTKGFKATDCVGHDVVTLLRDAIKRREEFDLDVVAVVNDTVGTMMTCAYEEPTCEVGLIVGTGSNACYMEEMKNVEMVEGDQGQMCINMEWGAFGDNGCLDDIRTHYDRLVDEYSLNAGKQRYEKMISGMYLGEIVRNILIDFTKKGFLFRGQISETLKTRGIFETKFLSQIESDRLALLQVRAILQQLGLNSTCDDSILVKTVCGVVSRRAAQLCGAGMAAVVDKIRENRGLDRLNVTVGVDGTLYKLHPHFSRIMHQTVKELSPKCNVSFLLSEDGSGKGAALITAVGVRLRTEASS
Sequence of Acyl-homoserine lactone acylase PvdQ (Q9I194 24-193 limits assumed): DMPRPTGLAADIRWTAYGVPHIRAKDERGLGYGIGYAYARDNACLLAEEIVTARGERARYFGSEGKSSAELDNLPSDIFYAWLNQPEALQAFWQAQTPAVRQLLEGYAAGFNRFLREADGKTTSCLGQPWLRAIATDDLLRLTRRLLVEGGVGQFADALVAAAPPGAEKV
Sequence of Acyl-homoserine lactone acylase PvdQ (Q9I194 217-762 limits assumed): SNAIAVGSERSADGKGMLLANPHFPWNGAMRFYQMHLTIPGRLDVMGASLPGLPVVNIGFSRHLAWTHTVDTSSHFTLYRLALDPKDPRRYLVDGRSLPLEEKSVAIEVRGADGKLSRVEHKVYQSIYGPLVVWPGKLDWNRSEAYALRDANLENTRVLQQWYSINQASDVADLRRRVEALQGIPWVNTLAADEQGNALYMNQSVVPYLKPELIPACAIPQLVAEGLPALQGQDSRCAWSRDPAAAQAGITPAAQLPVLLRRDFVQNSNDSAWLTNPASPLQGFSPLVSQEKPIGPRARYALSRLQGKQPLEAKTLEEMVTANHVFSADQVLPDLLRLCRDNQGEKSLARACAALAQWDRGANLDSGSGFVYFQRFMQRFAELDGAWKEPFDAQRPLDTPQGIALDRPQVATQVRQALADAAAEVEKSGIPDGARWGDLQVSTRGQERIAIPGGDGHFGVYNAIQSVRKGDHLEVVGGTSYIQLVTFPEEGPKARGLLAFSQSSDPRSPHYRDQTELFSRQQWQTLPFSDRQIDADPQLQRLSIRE
Sequence of ATP-dependent molecular chaperone HSP82 (C4YTQ8 whole entry): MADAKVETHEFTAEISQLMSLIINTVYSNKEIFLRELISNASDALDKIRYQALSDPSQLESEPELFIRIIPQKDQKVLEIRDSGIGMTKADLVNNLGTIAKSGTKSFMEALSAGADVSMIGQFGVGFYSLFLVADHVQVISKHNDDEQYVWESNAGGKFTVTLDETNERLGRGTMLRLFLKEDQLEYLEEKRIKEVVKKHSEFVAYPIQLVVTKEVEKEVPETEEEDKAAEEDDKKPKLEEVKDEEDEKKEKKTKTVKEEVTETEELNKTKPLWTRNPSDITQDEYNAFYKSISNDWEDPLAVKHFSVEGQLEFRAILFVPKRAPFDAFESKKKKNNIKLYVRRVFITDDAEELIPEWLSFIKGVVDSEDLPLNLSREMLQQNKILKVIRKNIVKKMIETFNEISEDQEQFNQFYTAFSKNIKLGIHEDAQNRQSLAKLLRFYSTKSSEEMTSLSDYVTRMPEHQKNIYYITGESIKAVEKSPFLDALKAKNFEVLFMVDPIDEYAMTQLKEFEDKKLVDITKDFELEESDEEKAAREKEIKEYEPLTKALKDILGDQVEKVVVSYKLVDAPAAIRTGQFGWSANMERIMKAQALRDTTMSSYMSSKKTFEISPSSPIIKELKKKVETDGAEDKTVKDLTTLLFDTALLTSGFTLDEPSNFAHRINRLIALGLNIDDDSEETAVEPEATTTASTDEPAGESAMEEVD

A word on the EC50: it is the concentration that produces a half-maximal response. Regarding `COc1cc2c(cc1NC(=O)c1ccco1)CCCC2`, the EC50 in [1] was > 150 µM (inactive); in assay [2], 841 nM (active); in assay [3], > 180 µM (inactive); in assay [4] it was > 150 µM (inactive).

With `Cl.c1ccc2c(c1)[IH]c1ccccc1-2`, in assay [5], the Potency was 35.4813 µM.

As a reminder, the AC50 is the concentration at which the activity in the assay is half-maximal. Consider `CC(C)COC(=O)COc1cc(Cl)c(Cl)cc1Cl`, for which the AC50 in [6] is 39.8 µM (inconclusive).

For the molecule `CN(Cc1ccccc1)c1ncnc2ccc(Br)cc12`, the AC50 was 4.49 µM (active) in assay [7] and 115 µM (active) in the assay with HeLa.

As for `CCOC(=O)Cn1cc([N+](=O)[O-])nc1[N+](=O)[O-]`, the AC50 in assay [8] is 29.5 µM (active); with A-375 [9], > 11 µM (active); in the assay with A-375 [10] it was > 11 µM (active).

Broadly, the IC50 is the point on the concentration scale where inhibition reaches its midpoint. As to `O=c1c2ccccc2nc(/C=C/c2cccnc2)n1Cc1ccc(Cl)cc1`, the IC50 on Hexokinase-1 and on Hexokinase HKDC1 was > 80 µM (inactive) each time.
